IC50 data for 9 compounds are collected here from patent US20170253601A1, “Substituted Pyrrolidine Compounds” (EPIZYME, INC., priority 2014, published 2017).

Each structure is given as a SMILES string.

The target of the test is T1, human SMYD3 (Homo sapiens, UniProt Q9H7B4).
T1 construct: Expressed full-length human His-tagged SMYD3 protein was purified from cell paste; His6 (cleaved yes); TEV and SUMO cleavage sites (cleaved yes); made in house; host or cells: E. coli BL21 codonplus RIL
T1 sequence (Q9H7B4 1-428): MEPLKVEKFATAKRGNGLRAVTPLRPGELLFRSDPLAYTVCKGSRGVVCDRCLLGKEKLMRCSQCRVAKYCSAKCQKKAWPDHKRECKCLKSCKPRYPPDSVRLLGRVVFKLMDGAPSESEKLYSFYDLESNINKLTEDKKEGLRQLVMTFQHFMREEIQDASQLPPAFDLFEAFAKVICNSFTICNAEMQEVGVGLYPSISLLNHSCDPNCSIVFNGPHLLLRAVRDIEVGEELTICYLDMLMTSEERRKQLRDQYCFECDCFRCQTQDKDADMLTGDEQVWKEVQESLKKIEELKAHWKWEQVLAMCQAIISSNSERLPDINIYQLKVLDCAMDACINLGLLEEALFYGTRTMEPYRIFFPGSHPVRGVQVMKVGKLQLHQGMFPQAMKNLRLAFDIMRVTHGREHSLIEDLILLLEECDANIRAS
Kind of test: SMYD3 Biochemical Assay (3H-SAM, MEKK2 protein substrate, SPA). To be noted: Table 1; average of n = 1 to n = 50; read-out: SMYD3 Biochem IC50. The text has this: S-adenosylmethionine (SAM), S-adenosylhomocysteine (SAH), Tris, Tween20, dimethylsulfoxide (DMSO), bovine skin gelatin (BSG), and Tris(2-carboxyethyl)phosphine hydrochloride solution (TCEP) were purchased from Sigma-Aldrich at the highest level of purity possible. ^3H-SAM was purchase from American Radiolabeled Chemicals with a specific activity of 80 Ci/mmol. 384-well opaque white OptiPlates and SPA beads (Perkin Elmer, catalog # RPNQ0013) were purchased from PerkinElmer.
N-terminally GST-tagged MEKK2 (MAP3K2) protein corresponding to reference sequence AAF63496.3 was purchased from Life Technologies (catalog # PV4010). This protein was expressed in High Five insect cells and purified to >85% purity. Protein identity was confirmed by MS/MS analysis after proteolytic digestion. The protein sequence used was:
Full-length human SMYD3 isoform 1 (BAB86333) was inserted into a modified pET21b plasmid containing a His6 tag and TEV and SUMO cleavage sites. Because two common variants of SMYD3 exist in the population, site directed mutagenesis was subsequently performed to change amino acid 13 from an asparagine to a lysine, resulting in plasmid pEPZ533. A lysine at position 13 conforms to the more commonly occurring sequence (NP_001161212).
E. coli (BL21 codonplus RIL strain, Stratagene) were transformed with plasmid pEPZ553 by mixing competent cells and plasmid DNA and incubating on ice for 30 minutes followed by heat shock at 42° C. for 1 minute and cooling on ice for 2 minutes. Transformed cells were grown and selected on LB agar with 100 μg/mL ampicillin and 17 μg/mL chloramphenicol at 37° C. overnight. A single clone was used to inoculate 200 mL of LB medium with 100 μg/mL ampicillin and 17 μg/mL chloramphenicol and incubated at 37° C. on an orbital shaker at 180 rpm. Once in log growth, the culture was diluted 1:100 into 2 L of LB medium and grown until OD600 was about 0.3 after which the culture was incubated at 15° C. and 160 rpm. Once OD600 reached about 0.4, IPTG was added to a final concentration of 0.1 mM and the cells were grown overnight at 15° C. and 160 rpm. Cells were harvested by centrifugation at 8000 rpm, for 4 minutes at 4° C. and stored at −80° C. for purification.
Expressed full-length human His-tagged SMYD3 protein was purified from cell paste by Nickel affinity chromatography after equilibration of the resin with Buffer A (25 mM Tris, 200 mM NaCl, 5% glycerol, 5 mM β-mercaptoethanol, pH7.8). The column was washed with Buffer B (Buffer A plus 20 mM imidazole) and His-tagged SMYD3 was eluted with Buffer C (Buffer A plus 300 mM imidazole). The His tag, TEV and SUMO cleavage sites were removed generating native SMYD3 by addition of ULP1 protein at a ratio of 1:200 (ULP1:SMYD3). Imidazole was removed by dialysis overnight in Buffer A. The dialyzed solution was applied to a second Nickel column and the native SMYD3 protein was collected from the column flow-through. The flow-through was dialyzed in Buffer D (25 mM Tris, 5% glycerol, 5 mM β-mercaptoethanol, 50 mM NaCl, pH7.8) and ULP1 was removed using a Q sepharose fast flow column. SMYD3 was eluted in Buffer A and further purified using an S200 size-exclusion column equilibrated with Buffer A. SMYD3 was concentrated to 2 mg/mL with a final purity of 89%.
The assays were all performed in a buffer consisting of 25 mM Tris-Cl pH 8.0, 1 mM TCEP, 0.005% BSG, and 0.005% Tween 20, prepared on the day of use. Compounds in 100% DMSO (1 ul) were spotted into a 384-well white opaque OptiPlate using a Bravo automated liquid handling platform outfitted with a 384-channel head (Agilent Technologies). DMSO (1 ul) was added to Columns 11, 12, 23, 24, rows A-H for the maximum signal control and 1 ul of SAH, a known product and inhibitor of SMYD3, was added to columns 11, 12, 23, 24, rows I-P for the minimum signal control. A cocktail (40 ul) containing the SMYD3 enzyme was added by Multidrop Combi (Thermo-Fisher). […]
As to `N[C@H]1CC[C@H](C(=O)N2CC[C@H](NC(=O)c3cc(C4CC4)on3)C2)CC1` [compound 33, N-((S)-1-((1r,4s)-4-aminocyclohexane-1-carbonyl)pyrrolidin-3-yl)-5-cyclopropyl-isoxazole-3-carboxamide], the IC50 (in general, the point on the concentration scale where inhibition reaches its midpoint) came to 3.25 µM.

Turning to `NCCCC(=O)N1CC[C@@H](NC(=O)c2cc(C3CC3)on2)C1` [compound 30, (R)-N-(1-(4-amino-butanoyl)pyrrolidin-3-yl)-5-cyclopropyl-isoxazole-3-carboxamide], the half-maximal inhibitory concentration (IC50) is over 10 µM.

Turning to `NCCCC(=O)N1CC[C@H](NC(=O)c2cc(C3CC3)on2)C1` [compound 32, (S)-N-(1-(4-amino-butanoyl)pyrrolidin-3-yl)-5-cyclopropyl-isoxazole-3-carboxamide], the IC50 is over 10 µM.

As to `COc1cccc(C2C(NC(=O)c3cc(C4CC4)on3)CCN2C2CC2)c1` (stereo not drawn) [compound 16, 5-cyclopropyl-N-(1-cyclopropyl-2-(3-methoxy-phenyl)pyrrolidin-3-yl)isoxazole-3-carboxamide], the IC50 stood at 77.4 µM.

Consider `O=C(NC1CC(=O)N(Cc2ccccc2)C1)c1cc(C2CC2)on1` (stereo not drawn) [compound 26, N-(1-benzyl-5-oxopyrrolidin-3-yl)-5-cyclopropylisoxazole-3-carboxamide], for which the IC50 worked out at 88.4 µM.

For `CC(=O)Nc1ccc(S(=O)(=O)N2CC[C@@H](NC(=O)c3cc(C4CC4)on3)C2)cc1` [compound 2, (R)-N-(1-((4-acetamido-phenyl)sulfonyl)pyrrolidin-3-yl)-5-cyclopropyl-isoxazole-3-carboxamide], the IC50 was over 100 µM.

Regarding `NCCCS(=O)(=O)N1CC[C@H](NC(=O)c2cc(C3CC3)on2)C1` [compound 35, (S)-N-(1-((3-amino-propyl)sulfonyl)pyrrolidin-3-yl)-5-cyclopropyl-isoxazole-3-carboxamide], the IC50 stood at 4.43 µM.

For the compound `CC(=O)Nc1ccc(S(=O)(=O)N2CC[C@H](NC(=O)c3cc(C4CC4)on3)C2)cc1` [compound 1, (S)-N-(1-((4-acetamido-phenyl)sulfonyl)pyrrolidin-3-yl)-5-cyclopropyl-isoxazole-3-carboxamide], the concentration for half-maximal inhibition (IC50) was over 100 µM.

Consider `CN1CCC(NC(=O)c2cc(C3CC3)on2)C1c1ccccc1` (stereo not drawn) [compound 5, 5-cyclopropyl-N-(1-methyl-2-phenyl-pyrrolidin-3-yl)isoxazole-3-carboxamide], for which the IC50 came out at 55.1 µM.
